What follows are compounds tested against T1, CPS1 (Homo sapiens, UniProt P31327) (assay: ADP-Glo endpoint assay measuring the ATPase activity of CPS1). Settings: geometric mean of a minimum of two values; 50 nM CPS1, 10 μM ATP, 0.2 mM NAG, 60 min at room temperature; read-out: ADPGlo IC50.
T1 construct: The full length, human CPS1 gene was cloned into pFastBac HTA; His6 (from the pFastBac HTA vector); made in house; host or cells: SF21 insect cells (baculovirus, Bac-to-bac)
T1 sequence (P31327 39-1500): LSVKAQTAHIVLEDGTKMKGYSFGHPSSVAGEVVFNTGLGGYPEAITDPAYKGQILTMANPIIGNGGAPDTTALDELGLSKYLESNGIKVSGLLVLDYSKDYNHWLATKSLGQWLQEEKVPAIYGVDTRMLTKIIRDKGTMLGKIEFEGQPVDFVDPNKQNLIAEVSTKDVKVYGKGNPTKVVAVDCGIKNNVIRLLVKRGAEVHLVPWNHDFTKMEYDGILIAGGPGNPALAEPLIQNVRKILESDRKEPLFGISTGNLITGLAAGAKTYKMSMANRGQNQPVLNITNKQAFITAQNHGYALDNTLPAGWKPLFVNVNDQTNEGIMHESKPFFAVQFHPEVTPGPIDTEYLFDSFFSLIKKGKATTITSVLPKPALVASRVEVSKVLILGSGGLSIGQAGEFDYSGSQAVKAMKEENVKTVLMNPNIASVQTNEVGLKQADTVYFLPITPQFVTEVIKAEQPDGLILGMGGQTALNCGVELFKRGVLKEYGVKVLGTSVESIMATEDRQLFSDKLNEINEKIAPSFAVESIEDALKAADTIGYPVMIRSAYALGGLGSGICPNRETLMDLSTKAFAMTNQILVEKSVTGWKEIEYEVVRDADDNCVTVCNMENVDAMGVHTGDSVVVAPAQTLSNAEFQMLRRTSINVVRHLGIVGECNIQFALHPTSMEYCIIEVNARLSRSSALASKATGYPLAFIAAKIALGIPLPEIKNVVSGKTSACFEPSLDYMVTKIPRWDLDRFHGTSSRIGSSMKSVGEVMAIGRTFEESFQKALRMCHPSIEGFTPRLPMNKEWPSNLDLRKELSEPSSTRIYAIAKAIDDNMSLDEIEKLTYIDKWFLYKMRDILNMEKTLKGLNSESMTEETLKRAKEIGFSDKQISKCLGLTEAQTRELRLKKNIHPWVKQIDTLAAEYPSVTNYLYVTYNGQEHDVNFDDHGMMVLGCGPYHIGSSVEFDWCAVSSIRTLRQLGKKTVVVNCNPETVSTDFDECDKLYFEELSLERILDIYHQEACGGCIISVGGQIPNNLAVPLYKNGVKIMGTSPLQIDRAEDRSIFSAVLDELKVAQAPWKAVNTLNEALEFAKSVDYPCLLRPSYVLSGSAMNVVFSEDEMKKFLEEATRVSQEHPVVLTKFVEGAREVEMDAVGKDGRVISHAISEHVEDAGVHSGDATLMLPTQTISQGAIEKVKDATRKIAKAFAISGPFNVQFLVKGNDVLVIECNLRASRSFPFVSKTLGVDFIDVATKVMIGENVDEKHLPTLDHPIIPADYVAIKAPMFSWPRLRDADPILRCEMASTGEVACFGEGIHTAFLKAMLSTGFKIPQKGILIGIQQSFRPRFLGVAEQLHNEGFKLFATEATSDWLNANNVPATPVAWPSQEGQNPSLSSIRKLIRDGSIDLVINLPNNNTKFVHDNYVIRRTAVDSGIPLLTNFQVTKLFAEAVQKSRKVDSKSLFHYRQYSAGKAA
Type: biochemical
How it was run: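 Full-length human His-tagged CPS1 from SF21 insect cells, 50 nM, preincubated 20 min with compound in pH 7.0 HEPES buffer containing KHCO3, (NH4)2SO3, MgCl2 and 0.2 mM NAG. Reaction started with 10 μM ATP, 60 min at room temperature; ADP formed detected by ADP-Glo luminescence.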

| SMILES | IC50 [µM] |
| --- | --- |
| COc1ccc(OC)c2[nH]c(C(=O)N3C[C@@H](C)N(C(=O)Cc4cc5ccccc5[nH]4)[C@H](C)C3)cc12 [Compound 91, 1-((2R,6R)-4-(4,7-dimethoxy-1H-indole-2-carbonyl)-2,6-dimethylpiperazin-1-yl)-2-(1H-indol-2-yl)ethanone] | > 66.7 |
| COc1ccc(C(=O)N2[C@H](C)CN(C(=O)c3cccc(OC)c3F)C[C@H]2C)c(F)c1 [Compound 92, ((2R,6R)-4-(2-fluoro-3-methoxybenzoyl)-2,6-dimethylpiperazin-1-yl)(2-fluoro-4-methoxyphenyl)methanone] | > 66.7 |
| COc1ccc(C(=O)N2C[C@@H](C)N(C(=O)c3ccc(NC(C)=O)cc3F)[C@H](C)C2)c(F)c1 [Compound 93, N-(3-fluoro-4-((2R,6R)-4-(2-fluoro-4-methoxybenzoyl)-2,6-dimethylpiperazine-1-carbonyl)phenyl)acetamide] | > 66.7 |
| COc1ccc(C(=O)N2C[C@@H](C)N(C(=O)c3ccc(OC)cc3Cl)[C@H](C)C2)c(F)c1 [Compound 94, ((3R,5R)-4-(2-chloro-4-methoxybenzoyl)-3,5-dimethylpiperazin-1-yl)(2-fluoro-4-methoxyphenyl)methanone] | > 66.7 |
| COc1ccc(C(=O)N2C[C@@H](C)N(C(=O)c3c(F)cc(OC)cc3F)[C@H](C)C2)c(F)c1 [Compound 95, ((3R,5R)-4-(2,6-difluoro-4-methoxybenzoyl)-3,5-dimethylpiperazin-1-yl)(2-fluoro-4-methoxyphenyl)methanone] | > 66.7 |
| COc1ccc(C(=O)N2[C@H](C)CN(C(=O)c3cc(OC)ccc3F)C[C@H]2C)c(F)c1 [Compound 96, ((3R,5R)-4-(2-fluoro-4-methoxybenzoyl)-3,5-dimethylpiperazin-1-yl)(2-fluoro-5-methoxyphenyl)methanone] | > 66.7 |
| COc1ccc(C(=O)N2[C@@H](C)CN(C(=O)c3cc(OC)ccc3F)C[C@@H]2C)c(F)c1 [Compound 97, ((3S,5S)-4-(2-fluoro-4-methoxybenzoyl)-3,5-dimethylpiperazin-1-yl)(2-fluoro-5-methoxyphenyl)methanone] | > 66.7 |
| COc1ccc(C(=O)N2[C@H](C)CN(C(=O)c3c[nH]c4ccc(O)cc34)C[C@H]2C)c(F)c1 [Compound 98, ((3R,5R)-4-(2-fluoro-4-methoxybenzoyl)-3,5-dimethylpiperazin-1-yl)(5-hydroxy-1H-indol-3-yl)methanone] | > 66.7 |
| COc1ccc(C(=O)N2C[C@@H](C)N(C(=O)c3ccc4ccn(C)c4c3)[C@H](C)C2)c(F)c1 [Compound 99, ((3R,5R)-3,5-dimethyl-4-(1-methyl-1H-indole-6-carbonyl)piperazin-1-yl)(2-fluoro-4-methoxyphenyl)methanone] | > 66.7 |
| COc1ccc(C(=O)N2[C@H](C)CN(C(=O)c3ccc(OC)cc3OC)C[C@H]2C)c(F)c1 [Compound 100, ((2R,6R)-4-(2,4-dimethoxybenzoyl)-2,6-dimethylpiperazin-1-yl)(2-fluoro-4-methoxyphenyl)methanone] | > 66.7 |
| COc1ccc(C(=O)N2[C@H](C)CN(C(=O)c3cc(OC)c(OC)cc3F)C[C@H]2C)c(F)c1 [Compound 101, ((2R,6R)-4-(2-fluoro-4,5-dimethoxybenzoyl)-2,6-dimethylpiperazin-1-yl)(2-fluoro-4-methoxyphenyl)methanone] | > 66.7 |
| COc1ccc(C(=O)N2[C@H](C)CN(C(=O)c3ccc(S(C)(=O)=O)cc3F)C[C@H]2C)c(F)c1 [Compound 102, ((2R,6R)-4-(2-fluoro-4-(methylsulfonyl)benzoyl)-2,6-dimethylpiperazin-1-yl)(2-fluoro-4-methoxyphenyl)methanone] | > 66.7 |
| COc1ccc(C(=O)N2[C@H](C)CN(C(=O)c3cc(NC(C)=O)ccc3F)C[C@H]2C)c(F)c1 [Compound 103, N-(4-fluoro-3-((3R,5R)-4-(2-fluoro-4-methoxybenzoyl)-3,5-dimethylpiperazine-1-carbonyl)phenyl)acetamide] | > 66.7 |
| COc1ccc(C(=O)N2C[C@@H](C)N(C(=O)c3c[nH]c4ccc(O)cc34)[C@H](C)C2)c(F)c1 [Compound 104, ((2R,6R)-4-(2-fluoro-4-methoxybenzoyl)-2,6-dimethylpiperazin-1-yl)(5-hydroxy-1H-indol-3-yl)methanone] | > 66.7 |
| COc1ccc(C(=O)N2C[C@@H](C)N(C(=O)c3ccc(OC)cc3)[C@H](C)C2)cc1 [Compound 105, ((2R,6R)-2,6-dimethylpiperazine-1,4-diyl)bis((4-methoxyphenyl)methanone)] | 3.19 |
| COc1ccc(C(=O)N2C[C@@H](C)N(C(=O)/C=C/c3ccc(O)cc3)[C@H](C)C2)c(F)c1 [Compound 106, (E)-1-((2R,6R)-4-(2-fluoro-4-methoxybenzoyl)-2,6-dimethylpiperazin-1-yl)-3-(4-hydroxypheny)prop-2-en-1-one] | 4.22 |
| COc1ccc(C(=O)N2[C@H](C)CN(C(=O)c3cnc(N)s3)C[C@H]2C)c(F)c1 [Compound 107, (2-aminothiazol-5-yl)((3R,5R)-4-(2-fluoro-4-methoxybenzoyl)-3,5-dimethylpiperazin-1-yl)methanone] | 6.44 |

What follows are compounds tested against T1, CPS1 (assay: Assay 2 - Transcreener ADP FP assay (ADP formation from CPS1)). Settings: 10 nM CPS1, varying amounts of ATP, 60 min, fluorescence polarization.
Type: biochemical
Method: CPS1 was expressed and purified from SF21 insect cells. The full length, human CPS1 gene was cloned into pFastBac HTA and baculovirus was generated using the Bac-to-bac expression system from Invitrogen. P3 virus was used to infect SF21 insect cells at a density of 1.5E6 cells/mL at an MOI of 2. Cells were harvested by centrifugation after 60 hrs and the cell pellet resuspended in lysis buffer (50 mM glycyl glycine pH 7.4, 20 mM KCl, 1 mM TCEP, 10% glycerol and 20 mM imidazole with Roche protease inhibitor tablet) before being lysed with 40 strokes of a Dounce homogenizer on ice. The insoluble fraction of the lysate was then cleared by centrifugation at 30,000 rpm for 30 min. 40 mL of supernatant was mixed with 2 mL of Ni NTA beads for 45 min at 4° C. in a 50 mL conical tube.
The beads were washed with 40 mL of wash buffer (50 mM glycyl glycine pH 7.4, 500 mM NaCl, 1 mM TCEP, 10% glycerol and 50 mM imidazole) by centrifugation and resuspension of the beads three times. Bound CPS1 protein was eluted in 6 mL of elution buffer (50 mM glycyl glycine pH 7.4, 500 mM NaCl, 1 mM TCEP, 10% glycerol and 250 mM imidazole) three times. Elution fractions were combined and concentrated using an Amicon Ultra centrifugation filter with a 10,000 molecular weight cut off. […]
ADP formation from CPS1 was measured in an endpoint assay using the Transcreener ADP FP kit from BellBbrook (Cat #3010-1K).

| SMILES | IC50 [µM] |
| --- | --- |
| COc1ccc(C(=O)N2[C@H](C)CN(C(=O)c3cc(OC)ccc3F)C[C@@H]2C)c(F)c1 [Compound 108, ((3S,5R)-4-(2-fluoro-4-methoxybenzoyl)-3,5-dimethylpiperazin-1-yl)(2-fluoro-5-methoxyphenyl)methanone] | > 66.7 |
